For this assay, the target named is T1, CFTR in F508del/MF-HBE cells (Homo sapiens, UniProt P13569, DEL508-508).
T1 construct: human bronchial epithelial (HBE) cells derived from CF subjects heterozygous for F508del and a minimal function CFTR mutation; endogenous in cells; host or cells: primary human bronchial epithelial cells from CF subjects (F508del/MF-HBE)
T1 sequence (P13569 with tags, fused parts or gaps DEL508-508): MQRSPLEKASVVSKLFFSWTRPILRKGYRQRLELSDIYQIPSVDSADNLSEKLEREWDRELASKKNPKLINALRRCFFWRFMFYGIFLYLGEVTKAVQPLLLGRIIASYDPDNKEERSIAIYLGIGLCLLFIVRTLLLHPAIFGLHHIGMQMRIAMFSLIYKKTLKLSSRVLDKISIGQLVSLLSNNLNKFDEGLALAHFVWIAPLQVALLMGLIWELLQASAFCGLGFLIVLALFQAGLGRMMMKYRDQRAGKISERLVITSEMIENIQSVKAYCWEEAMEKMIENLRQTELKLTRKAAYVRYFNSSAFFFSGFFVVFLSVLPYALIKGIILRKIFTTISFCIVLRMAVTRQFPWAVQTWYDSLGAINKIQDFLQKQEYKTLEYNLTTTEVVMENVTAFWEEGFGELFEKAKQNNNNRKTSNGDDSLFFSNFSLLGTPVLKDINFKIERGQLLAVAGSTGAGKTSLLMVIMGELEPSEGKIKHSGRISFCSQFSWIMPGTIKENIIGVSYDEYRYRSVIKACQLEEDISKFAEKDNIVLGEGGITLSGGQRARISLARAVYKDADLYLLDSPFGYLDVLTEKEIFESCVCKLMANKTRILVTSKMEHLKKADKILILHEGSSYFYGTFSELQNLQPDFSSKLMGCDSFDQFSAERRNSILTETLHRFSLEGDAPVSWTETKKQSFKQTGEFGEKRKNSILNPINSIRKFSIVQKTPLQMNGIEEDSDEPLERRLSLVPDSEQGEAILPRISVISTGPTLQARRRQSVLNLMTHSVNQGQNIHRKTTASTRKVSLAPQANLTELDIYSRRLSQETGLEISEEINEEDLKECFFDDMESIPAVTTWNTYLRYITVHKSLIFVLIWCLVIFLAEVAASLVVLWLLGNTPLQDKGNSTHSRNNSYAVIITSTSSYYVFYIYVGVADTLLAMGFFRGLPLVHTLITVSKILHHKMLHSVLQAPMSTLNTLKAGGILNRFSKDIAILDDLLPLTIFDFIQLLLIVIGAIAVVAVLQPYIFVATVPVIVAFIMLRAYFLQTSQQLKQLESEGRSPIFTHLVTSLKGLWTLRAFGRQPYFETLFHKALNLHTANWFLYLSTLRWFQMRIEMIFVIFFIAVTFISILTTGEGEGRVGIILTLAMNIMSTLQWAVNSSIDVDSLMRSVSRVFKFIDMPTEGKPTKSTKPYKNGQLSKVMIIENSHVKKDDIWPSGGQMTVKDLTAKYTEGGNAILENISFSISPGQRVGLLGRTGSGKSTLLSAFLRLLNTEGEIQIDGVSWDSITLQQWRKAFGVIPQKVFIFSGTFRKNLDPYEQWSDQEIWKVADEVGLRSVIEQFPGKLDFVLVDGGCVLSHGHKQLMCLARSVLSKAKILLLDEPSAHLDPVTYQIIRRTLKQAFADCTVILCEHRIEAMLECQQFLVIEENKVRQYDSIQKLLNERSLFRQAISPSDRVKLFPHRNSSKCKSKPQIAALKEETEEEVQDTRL
Kind of assay: Ussing chamber assay of CFTR-mediated short-circuit currents (identification of potentiator compounds). As to conditions: potentiator incubated 18-24 hours at 37° C. in combination with 10 μM corrector, in the presence of 20% human serum, CFTR-mediated ISC. Type of assay: cell-based. An outline of the steps: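 Short-circuit current was measured in Ussing chambers at 37° C, Vhold 0 mV, 30 μM apical amiloride. CFTR current was defined as the forskolin (20 μM) response relative to the current remaining after BPO/GlyH-101/inhibitor 172 (20 μM each). Before recording, cells had 18-24 h exposure to test potentiators with 10 μM corrector compound in 20% human serum.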
The term EC50 denotes the concentration giving half of the maximal effect. `Nc1cc(C(F)(F)F)c2nc1-c1nnc(o1)C(O)(C(F)(F)F)CCCCCN(CC(F)(F)F)C2=O` (single isomer, unassigned) [Compound 207, 17-amino-6-hydroxy-12-(2,2,2-trifluoroethyl)-6,15-bis(trifluoromethyl)-19-oxa-3,4,12,18-tetrazatricyclo [12.3.1.12,5] nonadeca-1(18),2,4,14,16-pentaen-13-one]: the EC50 is more than 1000 nM.
Next, `CC(C)(C)c1ccc(C2(N3CCCCCC(O)(C(F)(F)F)C4=NN=C(O4)c4nc(c(C(F)(F)F)cc4N)C3=O)CC2)cc1` (single isomer, unassigned) [Compound 227, 17-amino-12-[1-(4-tert-butylphenyl)cyclo-propyl]-6-hydroxy-6,15-bis(trifluoromethyl)-19-oxa-3,4,12,18-tetrazatricyclo [12.3.1.12,5] nonadeca-1(18),2,4,14,16-pentaen-13-one]: less than 500 nM.
In the case of `CC(C)(C)c1ccc(C2(N3CCCCCC(O)(C(F)(F)F)C4=NN=C(O4)c4nc(c(C(F)(F)F)cc4N)C3=O)CC2)cc1` (single isomer, unassigned) [Compound 228, 17-amino-12-[1-(4-tert-butylphenyl)cyclo-propyl]-6-hydroxy-6,15-bis(trifluoromethyl)-19-oxa-3,4,12,18-tetrazatricyclo [12.3.1.12,5] nonadeca-1(18),2,4,14,16-pentaen-13-one] it was less than 500 nM; in that of `CC(C)CN1CCCCC(O)(C(F)(F)F)C2=NN=C(O2)c2nc(c(C(F)(F)F)cc2N)C1=O` (single isomer, unassigned) [Compound 232, 16-amino-6-hydroxy-11-isobutyl-6,14-bis(trifluoromethyl)-18-oxa-3,4,11,17-tetrazatricyclo [11.3.1.12,5] octadeca-1(17),2,4,13,15-pentaen-12-one], less than 500 nM; in that of `CC(C)CN1CCCCC(O)(C(F)(F)F)C2=NN=C(O2)c2nc(c(C(F)(F)F)cc2N)C1=O` (single isomer, unassigned) [Compound 233, 16-amino-6-hydroxy-11-isobutyl-6,14-bis(trifluoromethyl)-18-oxa-3,4,11,17-tetrazatricyclo [11.3.1.12,5] octadeca-1(17),2,4,13,15-pentaen-12-one], less than 500 nM.
For `Nc1cc(C(F)(F)F)c2nc1-c1nnc(o1)C(O)(C(F)(F)F)CCCCN(Cc1ccc(OC(F)(F)F)cc1)C2=O` (single isomer, unassigned) [Compound 234, 16-amino-6-hydroxy-11-[[4-(trifluoromethoxy)phenyl]methyl]-6,14-bis(trifluoromethyl)-18-oxa-3,4,11,17-tetrazatricyclo [11.3.1.12,5] octadeca-1(17),2,4,13,15-pentaen-12-one], the EC50 is less than 500 nM.
In the case of `Nc1cc(C(F)(F)F)c2nc1-c1nnc(o1)C(O)(C(F)(F)F)CCCCN(Cc1ccc(OC(F)(F)F)cc1)C2=O` (single isomer, unassigned) [Compound 235, 16-amino-6-hydroxy-11-[[4-(trifluoromethoxy)phenyl]methyl]-6,14-bis(trifluoromethyl)-18-oxa-3,4,11,17-tetrazatricyclo [11.3.1.12,5] octadeca-1(17),2,4,13,15-pentaen-12-one] it was less than 500 nM; in that of `Nc1cc(C(F)(F)F)c2nc1-c1nnc(o1)C(O)(C(F)(F)F)CCCCCN(Cc1ccc(Br)cc1)C2=O` (single isomer, unassigned) [Compound 236, 17-amino-12-[(4-bromophenyl)methyl]-6-hydroxy-6,15-bis(trifluoromethyl)-19-oxa-3,4,12,18-tetrazatricyclo [12.3.1.12,5] nonadeca-1(18),2,4,14,16-pentaen-13-one], less than 500 nM; in that of `Nc1cc(C(F)(F)F)c2nc1-c1nnc(o1)C(O)(C(F)(F)F)CCCCN(Cc1ccccc1)C2=O` (single isomer, unassigned) [Compound 238, 16-amino-11-benzyl-6-hydroxy-6,14-bis(trifluoromethyl)-18-oxa-3,4,11,17-tetrazatricyclo [11.3.1.12,5] octadeca-1(17),2,4,13,15-pentaen-12-one], less than 500 nM.
`Nc1cc(C(F)(F)F)c2nc1-c1nnc(o1)C(O)(C(F)(F)F)CCCCN(Cc1ccccc1)C2=O` (single isomer, unassigned) [Compound 239, 16-amino-11-benzyl-6-hydroxy-6,14-bis(trifluoromethyl)-18-oxa-3,4,11,17-tetrazatricyclo [11.3.1.12,5] octadeca-1(17),2,4,13,15-pentaen-12-one]: the EC50 is less than 500 nM.
As for `Nc1cc(C(F)(F)F)c2nc1-c1nnc(o1)C(O)(C(F)(F)F)CCCCNC2=O` (single isomer, unassigned) [Compound 249, 16-amino-6-hydroxy-6,14-bis(trifluoromethyl)-18-oxa-3,4,11,17-tetrazatricyclo [11.3.1.12,5] octadeca-1(17),2,4,13,15-pentaen-12-one], the EC50 is less than 500 nM.
In the case of `Nc1cc(C(F)(F)F)c2nc1-c1nnc(o1)C(O)(C(F)(F)F)CCCCNC2=O` (single isomer, unassigned) [Compound 250, 16-amino-6-hydroxy-6,14-bis(trifluoromethyl)-18-oxa-3,4,11,17-tetrazatricyclo [11.3.1.12,5] octadeca-1(17),2,4,13,15-pentaen-12-one] it was more than 1000 nM.
In the case of `Nc1cc(C(F)(F)F)c2nc1-c1nnc(o1)[C@@](O)(C(F)(F)F)CCCCCCC2=O` [Compound 6, (6R)-17-amino-6-hydroxy-6,15-bis(trifluoromethyl)-19-oxa-3,4,18-triazatricyclo[12.3.1.12,5]nonadeca-1(18),2,4,14,16-pentaen-13-one] it was less than 500 nM.
`Cn1cc2c(n1)-c1nc(c(N)cc1C(F)(F)F)-c1nnc(o1)C(O)(C(F)(F)F)CCCCC2` (stereo not drawn) [Compound 24, 20-Amino-14-methyl-6,18-bis(trifluoromethyl)-22-oxa-3,4,14,15,21-pentaazatetracyclo[15.3.1.12,5.012,16]docosa-1(21),2,4,12,15,17,19-heptaen-6-ol]: the EC50 is more than 1000 nM.
In the case of `Nc1cc(C(F)(F)F)c2nc1-c1nnc(o1)[C@@](O)(C(F)(F)F)CCCC(F)(F)CCC2=O` [Compound 38, (6R)-17-amino-10,10-difluoro-6-hydroxy-6,15-bis(trifluoromethyl)-19-oxa-3,4,18-triazatricyclo[12.3.1.12,5]nonadeca-1(18),2,4,14,16-pentaen-13-one] it was less than 500 nM.
With `Nc1cc(C(F)(F)F)c2nc1-c1nnc(o1)[C@](O)(C(F)(F)F)CCCC(F)(F)CCC2=O` [Compound 39, (6S)-17-amino-10,10-difluoro-6-hydroxy-6,15-bis(trifluoromethyl)-19-oxa-3,4,18-triazatricyclo[12.3.1.12,5]nonadeca-1(18),2,4,14,16-pentaen-13-one], the EC50 was in the range of 500 to 1000 nM.
In the case of `Nc1cc(C(F)(F)F)c2nc1-c1nnc(o1)[C@@](O)(C(F)(F)F)CCC(F)(F)CCCC2=O` [Compound 40, (6R)-17-amino-9,9-difluoro-6-hydroxy-6,15-bis(trifluoromethyl)-19-oxa-3,4,18-triazatricyclo[12.3.1.12,5]nonadeca-1(18),2,4,14,16-pentaen-13-one] it was less than 500 nM; in that of `Nc1cc(C(F)(F)F)c2nc1-c1nnc(o1)[C@](O)(C(F)(F)F)CCC(F)(F)CCCC2=O` [Compound 41, (6S)-17-amino-9,9-difluoro-6-hydroxy-6,15-bis(trifluoromethyl)-19-oxa-3,4,18-triazatricyclo[12.3.1.12,5]nonadeca-1(18),2,4,14,16-pentaen-13-one], less than 500 nM.
`Nc1cc(C(F)(F)F)c2nc1-c1nnc(o1)[C@@](O)(C(F)(F)F)CCCC(=O)CCC2(F)F` [Compound 42, (6R)-17-Amino-13,13-difluoro-6-hydroxy-6,15-bis(trifluoromethyl)-19-oxa-3,4,18-triazatricyclo[12.3.1.12,5]nonadeca-1(18),2,4,14,16-pentaen-10-one]: the half-maximal effective concentration (EC50) is less than 500 nM.
In the case of `Nc1cc(C(F)(F)F)c2nc1-c1nnc(o1)[C@@](O)(C(F)(F)F)CCC(=O)CCCC2(F)F` [Compound 43, (6R)-17-amino-13,13-difluoro-6-hydroxy-6,15-bis(trifluoromethyl)-19-oxa-3,4,18-triazatricyclo[12.3.1.12,5]nonadeca-1(18),2,4,14,16-pentaen-9-one] it was less than 500 nM; in that of `Nc1cc(C(F)(F)F)c2nc1-c1nnc(o1)[C@@](O)(C(F)(F)F)CC(F)(F)CCCCC2=O` [Compound 44, (6R)-17-amino-8,8-difluoro-6-hydroxy-6,15-bis(trifluoromethyl)-19-oxa-3,4,18-triazatricyclo[12.3.1.12,5]nonadeca-1(18),2,4,14,16-pentaen-13-one], less than 500 nM; in that of `CC1(C)CCCCC[C@](O)(C(F)(F)F)C2=NN=C(O2)c2nc(c(C(F)(F)F)cc2N)C1=O` [Compound 45, (6R)-17-amino-6-hydroxy-12,12-dimethyl-6,15-bis(trifluoromethyl)-19-oxa-3,4,18-triazatricyclo[12.3.1.12,5]nonadeca-1(18),2,4,14,16-pentaen-13-one], less than 500 nM.
In the case of `CC1(C)CCCCC[C@@](O)(C(F)(F)F)C2=NN=C(O2)c2nc(c(C(F)(F)F)cc2N)C1=O` [Compound 46, (6S)-17-amino-6-hydroxy-12,12-dimethyl-6,15-bis(trifluoromethyl)-19-oxa-3,4,18-triazatricyclo[12.3.1.12,5]nonadeca-1(18),2,4,14,16-pentaen-13-one] it was less than 500 nM.
Next, `CC1(C)CCCC[C@](O)(C(F)(F)F)C2=NN=C(O2)c2nc(c(C(F)(F)F)cc2N)C(=O)C1` [Compound 47, (6R)-17-amino-6-hydroxy-11,11-dimethyl-6,15-bis(trifluoromethyl)-19-oxa-3,4,18-triazatricyclo[12.3.1.12,5]nonadeca-1(18),2,4,14,16-pentaen-13-one]: less than 500 nM.

The record behind these values is patent US20250122218A1, “MODULATORS OF CYSTIC FIBROSIS TRANSMEMBRANE CONDUCTANCE REGULATOR” (Vertex Pharmaceuticals Incorporated, priority 2022, published 2025).
